Structures can show the parent of a compound that is named as a salt.
Legend:
PBMCs from ALL patients = assay: Primary screening of FDA approved drug library, TitreGlo/CellTiter-Glo cell viability, PBMCs from ALL patients; assay type: cell-based, human; details: compound 10 uM, PBMCs from ALL patients, average over patients, relative to high control (0%) and no-cell low control (100%); for inhibition at 10 µM: Homo sapiens, PBMC, read-out: % Inhibition, ALL Average
Procedure: (§1) Whole blood was taken from experimental group patients and control group patients. The collected blood was transferred to EDTA tubes with a 5 mL pipette and a pipette aid and then to each EDTA tubes corresponding 50 ml centrifuge tubes. All the blood from one patient was placed into 1 tube (50 mL) and an equal volume of PBS was added to the 50 mL centrifuge tube. The sample was then mixed by either inverting the tube or pipetting up & down. The blood was transferred into tow 50 mL leucosep tube and centrifuged at room temperature (18-20° C.) for 15 minutes at 800×g with the brake turned off and acceleration at 2/deceleration at zero. After centrifugation, the white cell interface (buffy coat) was removed by pasture pipette and transferred to the new appropriately labelled 50 ml centrifuge tube. 25 mL PBS was added to the white cell interface (buffy coat) and the mix was centrifuged for 10 minutes at room temperature at 400×g with the brake off and acceleration at 4 & deceleration at 2. The supernatant was discarded from the pellet carefully in an appropriate manner. The pellet was washed another time with 20 mL by centrifugation for 5 minutes as above. The pellet was re-suspended in 5 mL and cells were counted using V-Cell. The cells were then either used directly as fresh for screening or frozen in liquid nitrogen in 10% DMSO/RPMPI media until use.
(§2) The assay used for TitreGlo (Promega) to measure cell viability based on the ATP production. […] The assay was developed in a 384-well plate with 2500 cell/well in 50 uL total volume. Alternatively, the assay could be developed in a 96-well plate with 10,000 cells/well. […] Z′ as a statistics factor was calculated as follows:
(§3) Each compound from the ENZO FDA SCREEN-WELL® FDA approved drug library V2 (0.10 μl in 100% DMSO) was transferred to white, 384-well, PS, Cellstar plates (Greiner Bio-One) using the Echo® Liquid Handler (Labcyte Inc.). Each plate contained one column for the High/Low Controls. The Low Control (1% DMSO v/v in column 23, no cells) and the High Control (final 1% DMSO v/v in column 24, with cells) were employed to calculate the Z′ for each assay plate. […] At 24 h post seeding, baseline growth was assessed using a control plate and CellTiter-Glo (CTG) reagent (Promega Corporation). Briefly, 20 μL/well of CTG detection mix was added and plates were read using an EnVision Multimode plate reader (PerkinElmer) after 10 min incubation in the dark. The raw luminescence signal was normalized in ActivityBase XE with outliers in control wells eliminated according to the 3-sigma method to yield percentage of cell viability by using the High Control (HC) containing cells in 1% DMSO v/v (Carl Roth) and the Low Control containing 1% DMSO v/v (Carl Roth). All Medium-Throughput Screening experiments were performed in duplicate for each patient. […] The raw luminescence signal was processed using Graph Pad Prism (Graph Pad Software Inc.) with outliers in control wells eliminated according to the 3-sigma method. The dose-response curves were analyzed using a 4 parameter sigmoidal fit to obtain plausible results in the case non-sigmoidal dose-response curves.
(§4) The Screen-Well FDA approved drug library was screened, which contains 780 approved drugs. […] The final DMSO concentration in the assay plate was 0.1% of total volume. […] The average of all four control samples was then calculated and used to determine the positive “hits” in patients' samples.
(§5) Each average patient samples were plotted against average of the control samples to identify the positive hits.

PBMCs from CML patients = assay: Primary screening of FDA approved drug library, TitreGlo/CellTiter-Glo cell viability, PBMCs from CML patients; assay type: cell-based, human; details: compound 10 uM, PBMCs from CML patients, average over patients, relative to high control (0%) and no-cell low control (100%); for inhibition at 10 µM: Homo sapiens, PBMC, read-out: % Inhibition, CML Average
Procedure: as §1, §2, §3, §5
Samples from 4 patients were screened against the FDA approved drug library where the Negative Control (High control) contained cells treated with DMSO and the Positive Control (Low control) were based using no cells. The screening was carried out in 96 well plates. The raw luminescence counts were normalized and the % Inhibition was calculated relative to the high control (0% Inhibition) and the low control (100% Inhibition).

PBMCs from CLL patients = assay: Primary screening of FDA approved drug library, TitreGlo/CellTiter-Glo cell viability, PBMCs from CLL patients; assay type: cell-based, human; details: compound 10 uM, PBMCs from CLL patients, average over patients, relative to high control (0%) and no-cell low control (100%); for inhibition at 10 µM: Homo sapiens, PBMC, read-out: % Inhibition, CLL Average
Procedure: as §1, §2, §3, §4, §5

PBMC from CML patients = assay: Confirmation of positive hits, dose-response TiterGlo growth inhibition, PBMC from CML patients versus healthy controls; assay type: cell-based, human; details: freshly prepared stock from solid, 24 hr incubation
Procedure: FIG. 2A depicts data of isoproterenol inducing cell death preferentially in chronic myelogenous leukemia (CML) patients' primary PBMC as compared to PBMC from healthy individuals (Control, CTL) when incubated with different concentrations of isoproterenol prepared from liquid stock. FIG. 2B depicts data of isoproterenol inducing cell death preferentially in chronic myelogenous leukemia (CML) patients' primary PBMC as compared to PBMC from healthy individuals (Control, CTL) when incubated with different concentrations of isoproterenol prepared from a solid.

PBMC from CLL patients = assay: Confirmation of positive hits, dose-response TiterGlo growth inhibition, PBMC from CLL patients versus healthy controls
Procedure: as §3
Compound plates were prepared from the same stock used in the original screening and each compound was tested at 16 concentration point with 100 uM being the highest concentration and the dilution factor was ⅓ between two points.
The TitreGlo was performed as described and the curve for growth inhibition was plotted using activity base to calculate the EC50.

PBMCs from AML patients = assay: Primary screening of FDA approved drug library, TitreGlo/CellTiter-Glo cell viability, PBMCs from AML patients; assay type: cell-based, human; details: compound 10 uM, PBMCs from AML patients, average over patients, relative to high control (0%) and no-cell low control (100%); for inhibition at 10 µM: Homo sapiens, PBMC, read-out: % Inhibition, AML Average
Procedure: as §1, §2, §3, §4, §5

Compound `CC(C)NCC(O)c1ccc(O)c(O)c1` (racemic) [(±) Isoproterenol HCl] has an inhibition at 10 µM (PBMCs from ALL patients) of 61.7%, an inhibition at 10 µM (PBMCs from CML patients) of 65.3% and an inhibition at 10 µM (PBMCs from CLL patients) of 39.9%. The “EC50 of growth inhibition, times higher in control PBMC compared to PBMC from CML patients” value (PBMC from CML patients) was 4.4 times and the “EC50 of growth inhibition, times higher in control PBMC compared to PBMC from CLL patients” value (PBMC from CLL patients; freshly prepared stock from solid, 24 hr incubation, TiterGlo) was 4.8 times.

In the case of `C[C@](N)(Cc1ccc(O)c(O)c1)C(=O)O` [Methyldopa], the “Effect on CLL PBMC compared to control cells” value (PBMC from CLL patients; dose-response, FIG. 3) is reported as “show an effect on CLL PBMC better than control cell”.

For `Cc1cc2c(s1)Nc1ccccc1N=C2N1CCN(C)CC1` [Olanzapine], the inhibition at 10 µM (PBMCs from ALL patients) was 71.8%, the inhibition at 10 µM (PBMCs from CML patients) was 79.5% and the inhibition at 10 µM (PBMCs from AML patients) was 1.8%. For the same compound, the inhibition at 10 µM (PBMCs from CLL patients) was -26.5%, the “Induction of cell death in PBMC from CLL patients compared to control cells” value (PBMC from CLL patients; fresh primary cells, FIG. 4A-4D) was “shown to induce cell death in PBMC from CLL patients compared to control cells” and the “Effect on PBMC when primary cells are tested after freezing” value (PBMC from CLL patients; primary cells tested after freezing) was “the effect is not observed”.

`COc1cc(NC(C)CCCN)c2ncccc2c1` (stereo not drawn) [Primaquine Phosphate] was tested, and the inhibition at 10 µM (PBMCs from ALL patients) was 54.9%, the inhibition at 10 µM (PBMCs from CML patients) was 40.9% and the inhibition at 10 µM (PBMCs from AML patients) was 19.8%. The inhibition at 10 µM (PBMCs from CLL patients) was 16.9%.

`CO[C@H]1/C=C/O[C@@]2(C)Oc3c(C)c(O)c4c(O)c(c5c(nc6cc(C)ccn65)c4c3C2=O)NC(=O)/C(C)=C\C=C\[C@H](C)[C@H](O)[C@@H](C)[C@@H](O)[C@@H](C)[C@H](OC(C)=O)[C@@H]1C` [Rifaximin] showed an inhibition at 10 µM (PBMCs from ALL patients) of -45.4%, an inhibition at 10 µM (PBMCs from CML patients) of 42.3% and an inhibition at 10 µM (PBMCs from AML patients) of -42.8%. The inhibition at 10 µM (PBMCs from CLL patients) was -60.2%.

With `CCN(CC)CCNC(=O)c1c(C)[nH]c(/C=C2\C(=O)Nc3ccc(F)cc32)c1C` [Sunitinib Malate] the inhibition at 10 µM (PBMCs from ALL patients) was 54.2%, the inhibition at 10 µM (PBMCs from CML patients) was 65.2% and the inhibition at 10 µM (PBMCs from AML patients) was 56.5%. The inhibition at 10 µM (PBMCs from CLL patients) was 40.5%.

`CO[C@H]1C[C@@H]2CC[C@@H](C)[C@@](O)(O2)C(=O)C(=O)N2CCCC[C@H]2C(=O)O[C@H]([C@H](C)C[C@@H]2CC[C@@H](OC(=O)C(C)(CO)CO)[C@H](OC)C2)CC(=O)[C@H](C)/C=C(\C)[C@@H](O)[C@@H](OC)C(=O)[C@H](C)C[C@H](C)/C=C/C=C/C=C/1C` [Temsirolimus] showed an inhibition at 10 µM (PBMCs from ALL patients) of -6.4%, an inhibition at 10 µM (PBMCs from CML patients) of 7% and an inhibition at 10 µM (PBMCs from AML patients) of 1.6%. It also gave an inhibition at 10 µM (PBMCs from CLL patients) of 26.6%.

`CSc1ccc2c(c1)N(CCC1CCCCN1C)c1ccccc1S2` (stereo not drawn) [Thioridazine HCl] was tested, and the inhibition at 10 µM (PBMCs from ALL patients) was 23.1%, the inhibition at 10 µM (PBMCs from CML patients) was 70.3% and the inhibition at 10 µM (PBMCs from AML patients) was 27%. The inhibition at 10 µM (PBMCs from CLL patients) was -40.9%.

For Ivermectin, the “% Inhibition, ALL Average” value (PBMCs from ALL patients) was 70.4%, the “% Inhibition, CML Average” value (PBMCs from CML patients) was 79.3% and the “% Inhibition, AML Average” value (PBMCs from AML patients) was 60.2%. The “% Inhibition, CLL Average” value (PBMCs from CLL patients) was 66.0%.

Reference: patent publication US10639382B2, “Method for treating leukemia” (National Guard Health Affairs, priority 2017, dated 2020)
